Source: patent US7618623B2, “Hybrid adeno-retroviral vector for the transfection of cells” (priority 2000, dated 2009)
Read-outs that look alike come from different tables or passages of the source.

Experiments:
HSG cells [1] = assay: Cell death on fibronectin-coated poly-L-lactic acid disks (crystal violet staining, cell count); format: cell-based, human; details: for cell death: cells infected with AdLTR.CMV-tk (MOI of 10)
Method: Two-dimensional films of poly-L-lactic acid (Boehringer Ingelheim Inc., Winchester, Va.) were produced by melt processing polymer pellets between sheets of aluminum foil using a Carver press at 350° F. to create disks with diameters of 20-25 mm. The disks were sterilized using y-irradiation for ˜150 min with a dose of 20,000 Gy.
Disks were gently placed in each well of a 6-well tissue culture plate (Becton Dickinson, Franklin Lakes, N.J.) and immersed in phosphate-buffered saline (PBS; GibcoBRL, Grand Island, N.Y.) for 18 hours with 5 μg/ml fibronectin at 37° C. (Aframian et al., Tissue Engin. 6:209, 2000). Thereafter, the coated disks were blocked for 1 hr with bovine serum albumin (Calbiochem-Novabiochem Corp., La Jolla, Calif.) at 37° C. and then gently washed twice with PBS (Aframian et al., op. cit.). Cell suspensions (1×10^5 cells; 2 ml/well) were added in complete culture medium and incubated at 37° C. for an additional 18 hours. Thereafter, the medium was discarded, and 10 MOI of virus diluted in PBS was added for an additional 6 hr. Next, GCV diluted in medium was added, and after an additional 125 hr the disks were washed twice in PBS, then stained with 0.2% crystal violet in 20% ethanol for 20 min (Aframian et al., op. cit). The disks were then rinsed twice with PBS and examined under a light microscope using a 10× objective. Three randomly selected photomicrographs were obtained from each specimen using 200 ASA color slide film (Elite chrome, Kodak, Rochester, N.Y.). The slides were scanned to convert them to digital images and, using Adobe Photoshop®, three 200 μm^2 regions were randomly chosen from each field, and cell number was determined visually.
An artificial salivary gland device will have cells grown as a monolayer on a fibronectin-coated poly-L-lactic acid substratum (Aframian et al., Tissue Engin. 6:209, 2000), rather than on tissue culture plastic. Therefore, the ability of GCV to elicit HSG cell death when the cells were attached to poly-L-lactic acid disks pre-coated with 5 μg/ml of human fibronectin was determined. […] The GCV effect ranged from 40% cell death at 0.5 μM GCV to 95% cell death when the GCV concentration was 50 μM.

HSG cells [2] = tested on: HSG cells
Description: HSG cells were a generous gift from […]. M. Sato (Tokushima University, Japan) (Shirasuna et al., Cancer 48:745, 1981) and were maintained in vitro as previously described (He et al., Pflugers Arch., 36:416, 1990). For the experiments presented herein, HSG cells were dispersed from semi-confluent plates using a solution of Versene 1:5000 in Hanks' balanced salt solution without calcium and magnesium (BioFluids, Rockville Md.). Cells were then resuspended in fresh media consisting of a 1:1 mixture of Eagle's Minimal Essential Medium, (Dulbecco's Modification) and Ham's F-12 supplemented with 2 mM glutamine (BioFluids), 10% fetal calf serum (Hyclone, Logan, Utah), and 100 units/ml penicillin, 100 μg/ml streptomycin and 2.5 μg/ml fungizone (BioFluids).
Cells were grown in 96-well culture plates at a density of 1×10^4 cells/well. […] Six hours after infection, GCV (Cytovene®, Syntex Laboratories, Inc., Palo Alto Calif.) was added to the media at concentrations of 0.5, 5, or 50 μM. After incubation for different time points, the sensitivity of cells to the GCV prodrug was evaluated using two separate methods, assaying either with the tetrazolium salt of 3-(4,5-dimethylthiazol-2-yl)-2,5-diphenyl […] bromide (MTT assay, Chemicon International Inc., Temecula, Calif.) or direct cell counting after trypan blue staining (Bio-Whittaker, Walkersville, Md.).
To assess the ability of the HSV-tk transgene to function in HSG cells, cell viability was studied on tissue culture plastic using the MTT assay. HSG cells were infected with different vector MOIs, and thereafter incubated with several concentrations of GCV (Candotti et al., Cancer Gene Ther., 7:574, 2000).

HSG cells [3] = assay: Trypan blue staining and manual cell counting on plastic; format: cell-based, human; details: cells infected with AdLTR.CMV-tk at a MOI of 10; 0.5, 5, 50 μM GCV
Description: HSG cells were a generous gift from […].
To determine the surviving cell number under these growth conditions on a plastic substrate following GCV treatment, in separate experiments trypan blue staining was used as well as manual cell counting.

What does the source list for `Nc1nc(O)c2ncn(COC(CO)CO)c2n1` [GCV, ganciclovir]?
appearance of cell monolayers (HSG cells [1]; 50 μM GCV alone, no infection): appeared normal; cells remaining on the disk (HSG cells [1]; AdLTR.CMV-tk at a MOI of 10 followed by 50 μM of GCV): loss of almost all of the cells; cell death (HSG cells [1]; 0.5 μM GCV): 40%; cell death (HSG cells [1]; 50 μM GCV): 95%; effect on HSG cell growth and viability (HSG cells [2]; GCV doses up to 50 μM, absence of AdLTR.CMV-tk infection): does not affect; effect of GCV on viability (HSG cells [2]; cells infected with AdLTR.CMV-tk at a MOI of 1): without effect; reduced viability compared to no GCV treatment (HSG cells [2]; cells infected with AdLTR.CMV-tk at a MOI of 10, all prodrug concentrations (0.5, 5, 50 μM)): > 50%; effect of GCV on viability (HSG cells [2]; uninfected cells, 0.5, 5, 50 μM GCV): without effect; decrease in number of viable cells compared with cells infected with 10 MOI alone (HSG cells [3]): up to 3 fold
